ChEMBL document CHEMBL1201862, “PubChem BioAssay data set” (2004)
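Compound exposure: 48 hours, 5 concentrations, 96-well plates. GI50 is the concentration that inhibits growth by half.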 Calls of active or inactive are those of the source. No stated cut-off is given here; in the data, active = GI50 up to about 1.1 µM and inactive = higher.

Columns and labels:
Test in all cases: DTP human tumour cell line panel, 48 h
SF-295 = test system: SF-295
HOP-62 = test system: HOP-62
HCC 2998 = test system: HCC 2998
OVCAR-5 = test system: OVCAR-5
ACHN = test system: ACHN
KM12 = test system: KM12
UACC-257 = test system: UACC-257
NCI-H226 = test system: NCI-H226
SN12C = test system: SN12C
Malme-3M = test system: Malme-3M
RXF 393 = test system: RXF 393
HCT-15 = test system: HCT-15
A549 = test system: A549
LOX IMVI = test system: LOX IMVI
SW-620 = test system: SW-620
NCI-H460 = test system: NCI-H460
OVCAR-3 = test system: OVCAR-3
OVCAR-8 = test system: OVCAR-8

Structure (SMILES) | GI50 (SF-295) | GI50 (HOP-62) | GI50 (HCC 2998) | GI50 (OVCAR-5) | GI50 (ACHN) | GI50 (KM12) | GI50 (UACC-257) | GI50 (NCI-H226) | GI50 (SN12C) | GI50 (Malme-3M) | GI50 (RXF 393) | GI50 (HCT-15) [µM] | GI50 (A549) | GI50 (LOX IMVI) | GI50 (SW-620) | GI50 (NCI-H460) | GI50 (OVCAR-3) | GI50 (OVCAR-8)
CCN(CC)c1ccc(C(=C2C=CC(=[N+](CC)CC)C=C2)c2ccccc2)cc1 | 0.0248 µM (active) | 0.102 µM (active) | 0.0351 µM (active) | 0.134 µM (active) | 0.0313 µM (active) | 0.0324 µM (active) | 0.0472 µM (active) | 0.023 µM (active) | 0.0254 µM (active) | 0.0304 µM (active) | 0.022 µM (active) | 0.0483 | 0.0348 µM (active) | 0.0219 µM (active) | 0.0291 µM (active) | 0.0231 µM (active) |  | 
O=c1c2cc3ccccc3n2c(=O)c2cc3ccccc3n12 | > 100 µM (inactive) |  | > 100 µM (inactive) | > 100 µM (inactive) | > 100 µM (inactive) | 89.5 µM (inactive) | > 100 µM (inactive) | > 100 µM (inactive) | > 100 µM (inactive) | > 100 µM (inactive) | > 100 µM (inactive) | > 100 | > 100 µM (inactive) | > 100 µM (inactive) | > 100 µM (inactive) | > 100 µM (inactive) | > 100 µM (inactive) | > 100 µM (inactive)
Cc1cc(N(CCC#N)S(C)(=O)=O)ccc1C=O | > 100 µM (inactive) | > 100 µM (inactive) | > 100 µM (inactive) | > 100 µM (inactive) | > 100 µM (inactive) | > 100 µM (inactive) | > 100 µM (inactive) | > 100 µM (inactive) | > 100 µM (inactive) | > 100 µM (inactive) | > 100 µM (inactive) | > 100 | > 100 µM (inactive) | > 100 µM (inactive) | > 100 µM (inactive) | > 100 µM (inactive) | > 100 µM (inactive) | > 100 µM (inactive)
O=P(c1ccccc1)(c1ccccc1)C1CC=C2CCCCCC2C1 (stereo not drawn) | 41.3 µM (inactive) |  |  | 23.2 µM (inactive) |  | 38.5 µM (inactive) | 25 µM (inactive) | 26.3 µM (inactive) | 30.6 µM (inactive) | 38.9 µM (inactive) | 28.8 µM (inactive) | 37.2 | > 10 µM (inactive) | 26.1 µM (inactive) | > 10 µM (inactive) | 32.7 µM (inactive) | 23.8 µM (inactive) | 31 µM (inactive)
Cc1nc2ccccc2c(=O)n1-c1ccccc1I | > 100 µM (inactive) | > 100 µM (inactive) | > 100 µM (inactive) | > 100 µM (inactive) | > 100 µM (inactive) |  | > 100 µM (inactive) | > 100 µM (inactive) | > 100 µM (inactive) | > 100 µM (inactive) |  | > 100 | > 100 µM (inactive) |  | > 100 µM (inactive) | > 100 µM (inactive) | > 100 µM (inactive) | > 100 µM (inactive)
O=c1c2cc(Br)ccc2[nH]c(=S)n1-c1ccc(Br)cc1 | 45.5 µM (inactive) | 67.6 µM (inactive) | > 100 µM (inactive) |  | > 100 µM (inactive) | > 100 µM (inactive) | > 100 µM (inactive) | > 100 µM (inactive) | 75 µM (inactive) | > 100 µM (inactive) | > 100 µM (inactive) | > 100 | > 100 µM (inactive) | 70.6 µM (inactive) | > 100 µM (inactive) | 82.8 µM (inactive) | 52.4 µM (inactive) | 31 µM (inactive)
CN(C)C(=N/O)/C(=N\O)N(C)C | > 100 µM (inactive) | > 100 µM (inactive) | > 100 µM (inactive) | > 100 µM (inactive) | > 100 µM (inactive) | > 100 µM (inactive) | > 100 µM (inactive) | 15.6 µM (inactive) | > 100 µM (inactive) | > 100 µM (inactive) | > 100 µM (inactive) | > 100 | > 100 µM (inactive) | > 100 µM (inactive) | > 100 µM (inactive) | > 100 µM (inactive) |  | > 100 µM (inactive)
O=CCCCC(Sc1ccccc1)Sc1ccccc1 | 18.1 µM (inactive) | > 100 µM (inactive) | 31 µM (inactive) |  | 16.3 µM (inactive) | 33 µM (inactive) | 21.1 µM (inactive) |  | 22 µM (inactive) |  | > 10 µM (inactive) | 15.7 | 29.6 µM (inactive) | 13.7 µM (inactive) | 11.4 µM (inactive) | > 10 µM (inactive) | 26.2 µM (inactive) | 17.4 µM (inactive)
COC(=O)C(=O)C(C#N)c1ccc(CC#N)cc1 (stereo not drawn) | > 100 µM (inactive) |  |  |  | > 100 µM (inactive) | > 100 µM (inactive) | > 100 µM (inactive) | > 100 µM (inactive) | > 100 µM (inactive) | > 100 µM (inactive) |  | > 100 | > 100 µM (inactive) | > 100 µM (inactive) | > 100 µM (inactive) |  | > 100 µM (inactive) | 
O=C[C@]12CC=C3OC4OC5(CCCCC5)OC4[C@H]3[C@H]1C(=O)C=CC2=O (stereo partly drawn) | 34.6 µM (inactive) | > 100 µM (inactive) | 32.7 µM (inactive) | 53.3 µM (inactive) | 18.2 µM (inactive) | 29.4 µM (inactive) | 21.1 µM (inactive) | > 100 µM (inactive) | 52.8 µM (inactive) | 17.6 µM (inactive) | 12.6 µM (inactive) | 18.7 | 11.6 µM (inactive) |  | 19.3 µM (inactive) | 23.9 µM (inactive) |  | 17.6 µM (inactive)
CCCC/C=C/C=C/C=C/CCCCCCCC(=O)OCC(COC(=O)CCCCCCC/C=C/C1C=CC(CCCC)C(C(=O)O)C1C(=O)O)OC(=O)CCCCCCC/C=C/C=C/C=C/CCCC.OCCNCO (stereo not drawn) | 17.8 µM (inactive) | 18.6 µM (inactive) | 23.4 µM (inactive) | 20.2 µM (inactive) | 19 µM (inactive) | 18.7 µM (inactive) | 19.1 µM (inactive) | 17.5 µM (inactive) | 20 µM (inactive) | 20.9 µM (inactive) |  | 16.2 | 18.8 µM (inactive) | 13.2 µM (inactive) | 4.05 µM (inactive) | 33.8 µM (inactive) | 17.9 µM (inactive) | 19.6 µM (inactive)
COc1ccc(/C=C2\SC(c3ccc(OC)cc3)N(NC(=O)Cc3ccccc3)C2=O)cc1 (stereo not drawn) | > 100 µM (inactive) | > 100 µM (inactive) |  | > 100 µM (inactive) | > 100 µM (inactive) | > 100 µM (inactive) | > 100 µM (inactive) | > 100 µM (inactive) | > 100 µM (inactive) | > 100 µM (inactive) | 63.7 µM (inactive) | > 100 | > 100 µM (inactive) | > 100 µM (inactive) | > 100 µM (inactive) | > 100 µM (inactive) |  | > 100 µM (inactive)
O=C(CC1=Nc2nnc(-c3nnc4n3C(=O)C(CC(=O)c3cccnc3)=N4)n2C1=O)c1cccnc1 | > 100 µM (inactive) | > 100 µM (inactive) | > 100 µM (inactive) | > 100 µM (inactive) | > 100 µM (inactive) | > 100 µM (inactive) | > 100 µM (inactive) | > 100 µM (inactive) | > 100 µM (inactive) | > 100 µM (inactive) | > 100 µM (inactive) | > 100 | > 100 µM (inactive) | > 100 µM (inactive) | > 100 µM (inactive) | > 100 µM (inactive) | > 100 µM (inactive) | 
